Common to all, as to assay: NCI-60 single dose screen, sulforhodamine B
Assay type in all cases: cell-based, human

One experiment concerns IGROV1. The following applies: Ovarian cancer IGROV1; single dose 10^−5 M. How it is done: (§1) In this research, all of the newly synthesised quinazolinones were subjected to in vitro anticancer screening by the National Cancer Institute (USA) against 60 different human cell lines including leukaemia, non-small cell lung cancer, colon cancer, CNS cancer, melanoma, ovarian cancer, renal cancer, prostate cancer, and breast cancer. The tested compounds were evaluated at a single dose (10^−5 M). […] Regarding the benzenesulfonamide counterparts, the introduction of an electron-withdrawing group on the benzenesulfonamide moiety increased the inhibitory activity on the glioblastoma cell line SNB-75 as depicted by the chloro derivative 5c (GI% = 63.09) which was higher than that of the unsubstituted derivative 5a (GI% = 40.06) and the methyl derivative 5b (GI% = 33.03).
(§2) 1. Cytotoxicity screening against a panel of 60 human tumor cell lines
(§3) All the compounds were selected for NCI-60 Human Tumor Cell Lines Screen by the Developmental Therapeutics Program (DTP) at the National Cancer Institute (NCI), Maryland, USA. The operation of this screen utilizes 60 different human tumor cell lines, representing leukemia, non-small-cell lung cancer, colon cancer, CNS cancer, melanoma, ovarian cancer, renal cancer, prostate cancer and breas t cancer.
(§4) The compounds were supplied as dry powder and a single concentration is tested in all 60 cell lines at a single dose of 10 µM solution in dimethyl sulfoxide (DMSO) using Sulforhodamine B assay. Briefly, cells are seeded in 96 well plates at an appropriate density and incubated for 1 day. After 1 day, some of the plates are processed to determine the density time zero. To the remaining plates, compounds are added at 10 µM concentration. Plates are incubated a further 2 days, then fixed and staine d with sulphorhodamine B. Growth inhibition is calculated relative to cells without drug treatment and the time zero control. The use of a time zero control allows the determination of cell kill as well as net growth inhibition.
(§5) 2. Detection of IC50 against MDA-MB-435, SNB-75 cell lines and normal cell line WI -38.
(§6) Antiproliferative activities of 5c in melanoma cell line MDA-MB-435, glioblastoma cell line SNB-75 and normal cell line WI -38 and that of 8a in melanoma cell line MDA-MB-435 and normal cell line WI-38 were measured spectrophotometrically using in vitro MTT based toxicology assay kit (catalog no. M -5655, M-8910) (Sigma Aldrich), according to the manufacturer’s protocol. The three examined cell lin es were obtained from American Type Culture Collection (ATCC). Briefly, cells were platted (cells density 1.2 – 1.8 × 10,000 cells/well) in a volume of 100 µl complete growth medium + 100 μl of the tested compound per well in a 96-well plate for 48 h before the MTT assay. The cultures were removed from incubator into laminar flow hood then each vial of MTT [M-5655] should be reconstituted with 3 ml of medium or balanced salt solution without phenol red and serum. Reconstituted MTT was added in an amount equal to […]

Another experiment has as its system HL-60(TB). As to conditions: Leukaemia HL-60(TB); single dose 10^−5 M. Here is the method:
as §1, §2, §3, §4, §5, §6

The subject of the next experiment is MDA-MB-468. As to conditions: Breast cancer MDA-MB-468; single dose 10^−5 M. Here is the method: as §1, §2, §3, §4, §5, §6
A further experiment relates to MCF7. As to conditions: Breast cancer MCF7; single dose 10^−5 M. How it is done: as §1, §2, §3, §4, §5, §6
A further experiment relates to M14. As to conditions: Melanoma M14; single dose 10^−5 M. Here is the method:
as §1, §2, §3
as §4, with “inhibition. […]” for “inhibition.”

A further experiment has as its system CCRF-CEM. As to conditions: Leukaemia CCRF-CEM; single dose 10^−5 M. Here is the method: as §1, §2, §3
as §4, with “inhibition. […]” for “inhibition.”

Another experiment concerns 786-0. As to conditions: Renal cancer 786-0; single dose 10^−5 M. How it is done:
as §1, §2, §3
as §4, with “inhibition. […]” for “inhibition.”

In the next experiment the test system is MALME-3M. The following applies: Melanoma MALME-3M; single dose 10^−5 M. How it is done: as §1, §2, §3
as §4, with “inhibition. […]” for “inhibition.”

For the next experiment, the system named is KM12. The following applies: Colon cancer KM12; single dose 10^−5 M. How it is done: as §1, §2, §3
as §4, with “inhibition. […]” for “inhibition.”

For a further experiment, the system named is SF-295. The following applies: CNS cancer SF-295; single dose 10^−5 M. Here is the method:
as §1, §2, §3
as §4, with “inhibition. […]” for “inhibition.”

The next experiment deals with CAKI-1. The following applies: Renal cancer CAKI-1; single dose 10^−5 M. How it is done: as §1, §2, §3
as §4, with “inhibition. […]” for “inhibition.”

The next experiment has as its system NCI-H522. The following applies: Non-small cell lung cancer NCI-H522; single dose 10^−5 M. Here is the method: as §1, §2, §3
as §4, with “inhibition. […]” for “inhibition.”

The subject of the next experiment is UO-31. As to conditions: Renal cancer UO-31; single dose 10^−5 M. Here is the method: as §1, §2, §3
as §4, with “inhibition. […]” for “inhibition.”

In a further experiment the test system is RXF 393. As to conditions: Renal cancer RXF 393; single dose 10^−5 M. Here is the method:
as §1, §2, §3
as §4, with “inhibition. […]” for “inhibition.”

A further experiment has as its system SF-539. As to conditions: CNS cancer SF-539; single dose 10^−5 M. Here is the method:
as §1, §2, §3
as §4, with “inhibition. […]” for “inhibition.”

The test system of another experiment is K-562. As to conditions: Leukaemia K-562; single dose 10^−5 M. How it is done:
as §1, §2, §3
as §4, with “inhibition. […]” for “inhibition.”

In a further experiment the test system is OVCAR-5. As to conditions: Ovarian cancer OVCAR-5; single dose 10^−5 M. Here is the method: as §1, §2, §3
as §4, with “inhibition. […]” for “inhibition.”

The next experiment concerns DU-145. As to conditions: Prostate cancer DU-145; single dose 10^−5 M. Here is the method:
as §1, §2, §3
as §4, with “inhibition. […]” for “inhibition.”

Another experiment relates to HCT-15. As to conditions: Colon cancer HCT-15; single dose 10^−5 M. How it is done:
as §1, §2, §3
as §4, with “inhibition. […]” for “inhibition.”

The next experiment has as its system SN12C. The following applies: Renal cancer SN12C; single dose 10^−5 M. How it is done:
as §1, §2, §3
as §4, with “inhibition. […]” for “inhibition.”

A further experiment deals with OVCAR-4. The following applies: Ovarian cancer OVCAR-4; single dose 10^−5 M. How it is done:
as §1, §2, §3
as §4, with “inhibition. […]” for “inhibition.”

The subject of the next experiment is SNB-75. The following applies: CNS cancer SNB-75; single dose 10^−5 M. How it is done: as §1, §2, §3
as §4, with “inhibition. […]” for “inhibition.”

The test system of the next experiment is SK-MEL-2. The following applies: Melanoma SK-MEL-2; single dose 10^−5 M. Here is the method:
as §1, §2, §3
as §4, with “inhibition. […]” for “inhibition.”

Structures are written as SMILES.

Take `O=c1c2ccccc2nc(COc2ccccc2)n1N=CC=Cc1ccccc1` [Compound 6b, 2-(phenoxymethyl)-3-((3-phenylallylidene)amino)quinazolin-4(3H)-one]: the “GI% at 10^−5 M” value in the experiment with IGROV1 is “– (– means GI < 10%)”; in the experiment with HL-60(TB), “– (– means GI < 10%)”; in the experiment on MDA-MB-468, 10.89%; in the experiment with MCF7, 16.22%; in the experiment with M14 it was “– (– means GI < 10%)”; in the experiment with CCRF-CEM it was 15.66%. The “GI% at 10^−5 M” value in the experiment on 786-0 was “– (– means GI < 10%)”; in the experiment on MALME-3M, “– (– means GI < 10%)”; in the experiment with KM12 it was “– (– means GI < 10%)”; in the experiment with SF-295, “– (– means GI < 10%)”; in the experiment with CAKI-1 it was “– (– means GI < 10%)”; with NCI-H522 it was 18.6%. Besides, the “GI% at 10^−5 M” value in the experiment on UO-31 is listed as 10.2%; with RXF 393, “– (– means GI < 10%)”; in the experiment with SF-539, “– (– means GI < 10%)”; with K-562, “– (– means GI < 10%)”; in the experiment on OVCAR-5, “– (– means GI < 10%)”; with DU-145, “– (– means GI < 10%)”. Also, the “GI% at 10^−5 M” value is on record as 23.15% in the experiment with HCT-15; 12.39% in the experiment with SN12C; 10.01% with OVCAR-4; 16.57% with SNB-75; “– (– means GI < 10%)” in the experiment on SK-MEL-2.
With `COc1cc(C=Nn2c(COc3ccccc3)nc3ccccc3c2=O)ccc1O` [Compound 6a, 3-((4-hydroxy-3-methoxybenzylidene)amino)-2-(phenoxymethyl)quinazolin-4(3H)-one], the “GI% at 10^−5 M” value in the experiment with IGROV1 is “– (– means GI < 10%)”; in the experiment on HL-60(TB), “– (– means GI < 10%)”; in the experiment on MDA-MB-468, “– (– means GI < 10%)”; in the experiment on MCF7, 22.94%; in the experiment on M14, “– (– means GI < 10%)”; in the experiment with CCRF-CEM, “– (– means GI < 10%)”. Also, the “GI% at 10^−5 M” value with 786-0 is “– (– means GI < 10%)”; in the experiment with MALME-3M, “– (– means GI < 10%)”; in the experiment on KM12 it was “– (– means GI < 10%)”; in the experiment with SF-295, “– (– means GI < 10%)”; with CAKI-1, “– (– means GI < 10%)”; with NCI-H522, 16.82%. For the same compound, the “GI% at 10^−5 M” value with UO-31 is reported as 15.75%; in the experiment on RXF 393 it was “– (– means GI < 10%)”; in the experiment with SF-539, “– (– means GI < 10%)”; in the experiment on K-562, “– (– means GI < 10%)”; in the experiment with OVCAR-5, “– (– means GI < 10%)”; in the experiment on DU-145, “– (– means GI < 10%)”. The “GI% at 10^−5 M” value was “– (– means GI < 10%)” in the experiment with HCT-15; 10.37% in the experiment with SN12C; “– (– means GI < 10%)” in the experiment with OVCAR-4; 13.12% with SNB-75; “– (– means GI < 10%)” with SK-MEL-2.
Turning to `CN1CCN(CC(=O)Nn2c(COc3ccccc3)nc3ccccc3c2=O)CC1` [Compound 8a, 2–(4-methylpiperazin-1-yl)-N-(4-oxo-2-(phenoxymethyl)quinazolin-3(4H)-yl)acetamide], the “GI% at 10^−5 M” value in the experiment on IGROV1 was 26.87%; in the experiment with HL-60(TB), 19.74%; with MDA-MB-468, 49.06%; with MCF7, 57.64%; in the experiment with M14 it was 21.06%; with CCRF-CEM, 10.65%. For the same compound, the “GI% at 10^−5 M” value in the experiment with 786-0 was “– (– means GI < 10%)”; in the experiment with MALME-3M it was 20.47%; with KM12, 55.03%; in the experiment with SF-295, “– (– means GI < 10%)”; in the experiment with CAKI-1, 28.85%; with NCI-H522 it was 24.6%. Also, the “GI% at 10^−5 M” value in the experiment with UO-31 is 29.32%; with RXF 393, “– (– means GI < 10%)”; in the experiment with SF-539, 11.37%; in the experiment with K-562, 67.8%; in the experiment on OVCAR-5 it was “– (– means GI < 10%)”; with DU-145 it was “– (– means GI < 10%)”. For the same compound, the “GI% at 10^−5 M” value is on record as 44.04% in the experiment on HCT-15; “– (– means GI < 10%)” in the experiment on SN12C; “– (– means GI < 10%)” in the experiment with OVCAR-4; 27.37% in the experiment with SNB-75; 12.84% with SK-MEL-2.
As to `O=C(CNn1c(COc2ccccc2)nc2ccccc2c1=O)Nc1ccc(Cl)cc1` [Compound 4c, N-(4-chlorophenyl)-2-((4-oxo-2-(phenoxymethyl)quinazolin-3(4H)-yl)amino)acetamide], the “GI% at 10^−5 M” value in the experiment on IGROV1 is given as 19.62%; in the experiment on HL-60(TB), “– (– means GI < 10%)”; in the experiment on MDA-MB-468, 11.13%; in the experiment on MCF7 it was 10.05%; in the experiment with M14, “– (– means GI < 10%)”; with CCRF-CEM, “– (– means GI < 10%)”. The “GI% at 10^−5 M” value with 786-0 was “– (– means GI < 10%)”; with MALME-3M it was 12.02%; with KM12 it was “– (– means GI < 10%)”; in the experiment with SF-295 it was “– (– means GI < 10%)”; with CAKI-1 it was 23.58%; in the experiment on NCI-H522, 24.21%. For the same compound, the “GI% at 10^−5 M” value in the experiment on RXF 393 was “– (– means GI < 10%)”; in the experiment with SF-539 it was “– (– means GI < 10%)”; in the experiment with K-562, 10.43%; with OVCAR-5, “– (– means GI < 10%)”; in the experiment on DU-145, “– (– means GI < 10%)”; in the experiment with HCT-15, “– (– means GI < 10%)”. In addition, the “GI% at 10^−5 M” value is listed as 19.15% in the experiment with SN12C, 11.8% in the experiment on OVCAR-4, “– (– means GI < 10%)” with SNB-75 and “– (– means GI < 10%)” in the experiment on SK-MEL-2.

The values are drawn from article PMC8843100, “Development of newly synthesised quinazolinone-based CDK2 inhibitors with potent efficacy against melanoma” (Journal of Enzyme Inhibition and Medicinal Chemistry, 2022).
